Assay results taken from patent US20090247559A1 (Exelixis, Inc., priority 2007, published 2009).
Read-outs that look alike come from different tables or passages of the source.

Legend:
CK2 = CK2 (Homo sapiens, UniProt P68400); assay: CK2 inhibition, biochemical chemiluminescence holoenzyme assay (Kinase Glo, IC50 determination)
Method in brief: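 Holoenzyme CK2 assay; compounds pre-incubated with substrate and enzyme, then reacted 150 min at 24-27° C. Remaining ATP measured as luminescence with Kinase Glo, and IC50 derived from the signal.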

CDC7 = CDC7 (Homo sapiens, UniProt O00311); assay: CDC7 inhibition, biochemical chemiluminescence assay (Kinase Glo, IC50 determination)
Method in brief: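 CDC7 enzyme preincubated with compound 10 min at ambient temperature, then ATP mix in Tris Base added; reaction 90 min at 24-27 °C. Remaining ATP quantified by Kinase Glo luminescence to give IC50.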

[1] = target: PIM (PIM-1, PIM-2, and/or PIM-3); assay: PIM-1, PIM-2 and PIM-3 inhibition, biochemical chemiluminescence assays (Kinase Glo, IC50 determination); details: Table 1 activity class; PIM refers to PIM-1, PIM-2, and/or PIM-3; read-out: PIM IC50 (Activity B)
[2] = Table 1 activity class, symbol given only if active, read-out: CK2 IC50 (Activity C)
[3] = Table 1 activity class, symbol given only if active, read-out: CDC7 IC50 (Activity A)
[4] = compounds in Table 1, read-out: CDC7 IC50 value

CDC7, sequence (O00311 whole entry): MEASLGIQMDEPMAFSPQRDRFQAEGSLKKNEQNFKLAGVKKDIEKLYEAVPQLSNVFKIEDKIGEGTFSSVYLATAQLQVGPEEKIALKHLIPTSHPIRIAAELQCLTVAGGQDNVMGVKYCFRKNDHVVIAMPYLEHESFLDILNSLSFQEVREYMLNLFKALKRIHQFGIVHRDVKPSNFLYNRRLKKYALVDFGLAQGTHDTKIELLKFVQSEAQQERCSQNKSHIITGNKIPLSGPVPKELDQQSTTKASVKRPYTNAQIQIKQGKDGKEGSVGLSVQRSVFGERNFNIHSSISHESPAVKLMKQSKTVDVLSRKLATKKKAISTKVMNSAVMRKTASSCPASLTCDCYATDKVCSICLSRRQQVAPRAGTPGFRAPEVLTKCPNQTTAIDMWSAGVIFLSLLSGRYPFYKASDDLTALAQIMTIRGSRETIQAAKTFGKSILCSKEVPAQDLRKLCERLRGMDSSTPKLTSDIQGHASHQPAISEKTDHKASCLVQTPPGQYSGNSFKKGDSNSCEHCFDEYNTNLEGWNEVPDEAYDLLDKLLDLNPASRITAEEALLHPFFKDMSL
CDC7, sequence (Q9UBU7 whole entry partner): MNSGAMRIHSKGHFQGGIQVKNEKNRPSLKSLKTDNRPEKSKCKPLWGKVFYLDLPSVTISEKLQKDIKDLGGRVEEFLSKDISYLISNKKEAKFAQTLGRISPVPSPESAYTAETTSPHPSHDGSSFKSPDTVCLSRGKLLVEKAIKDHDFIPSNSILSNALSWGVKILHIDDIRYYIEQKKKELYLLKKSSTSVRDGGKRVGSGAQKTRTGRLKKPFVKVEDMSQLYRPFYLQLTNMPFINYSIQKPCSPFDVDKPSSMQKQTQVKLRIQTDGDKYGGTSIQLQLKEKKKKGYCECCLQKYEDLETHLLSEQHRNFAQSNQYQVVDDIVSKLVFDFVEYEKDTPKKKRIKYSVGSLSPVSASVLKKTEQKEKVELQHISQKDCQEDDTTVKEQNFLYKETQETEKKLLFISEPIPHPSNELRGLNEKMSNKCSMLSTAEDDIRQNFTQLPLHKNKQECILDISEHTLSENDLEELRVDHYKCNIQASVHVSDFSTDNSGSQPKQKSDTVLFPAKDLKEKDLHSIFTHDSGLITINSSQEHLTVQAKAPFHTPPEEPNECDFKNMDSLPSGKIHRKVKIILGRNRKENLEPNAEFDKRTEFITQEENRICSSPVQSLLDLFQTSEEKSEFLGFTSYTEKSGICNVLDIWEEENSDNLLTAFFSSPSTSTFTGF
CK2, sequence (P68400 whole entry): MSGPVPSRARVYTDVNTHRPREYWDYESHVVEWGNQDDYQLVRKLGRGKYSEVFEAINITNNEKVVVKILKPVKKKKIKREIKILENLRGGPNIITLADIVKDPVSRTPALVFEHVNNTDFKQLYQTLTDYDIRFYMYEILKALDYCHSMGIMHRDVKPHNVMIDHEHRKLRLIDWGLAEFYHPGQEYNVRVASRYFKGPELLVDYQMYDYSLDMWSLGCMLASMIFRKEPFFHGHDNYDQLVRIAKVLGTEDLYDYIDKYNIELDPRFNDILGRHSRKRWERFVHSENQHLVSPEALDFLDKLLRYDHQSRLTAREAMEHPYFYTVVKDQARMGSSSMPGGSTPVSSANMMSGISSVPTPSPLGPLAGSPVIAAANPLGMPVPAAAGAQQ
CK2, sequence (P67870 whole entry partner): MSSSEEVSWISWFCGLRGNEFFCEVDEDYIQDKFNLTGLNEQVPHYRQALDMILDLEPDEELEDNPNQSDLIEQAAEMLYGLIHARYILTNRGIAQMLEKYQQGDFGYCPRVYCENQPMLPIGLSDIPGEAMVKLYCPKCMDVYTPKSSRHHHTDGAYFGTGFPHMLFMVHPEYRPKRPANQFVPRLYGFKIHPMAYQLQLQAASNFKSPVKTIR

| Structure (SMILES) | IC50 (CK2; [2]) [µM] | IC50 (CDC7; [3]) [µM] | IC50 (CDC7; [4]) [µM] | IC50 [1] [µM] | IC50 (CK2) [µM] | IC50 (CDC7; CDC7 IC50 (Activity A), Table 1 activity class, symbol given only if active) [µM] |
| --- | --- | --- | --- | --- | --- | --- |
| NC1CCCC(c2nc3c(oc4ccc(Br)cc43)c(=O)[nH]2)C1 (stereo not shown) [Compound 380, 2-(3-aminocyclohexyl)-8-bromo[1]benzofuro[3,2-d]pyrimidin-4(3H)-one] | < 10 | < 10 | < 0.1 | < 10 | – | – |
| CN(C)Cc1ccc(-c2nc3c(oc4ccc(Br)cc43)c(=O)[nH]2)c(Cl)c1 [Compound 381, 8-bromo-2-{2-chloro-4-[(dimethylamino)methyl]phenyl}[1]benzofuro[3,2-d]pyrimidin-4(3H)-one] | < 10 | < 10 | – | < 10 | – | – |
| O=c1[nH]c(-c2ccc(CNCCN3CCCCC3)cc2Cl)nc2c1oc1ccc(Br)cc12 [Compound 385, 8-bromo-2-(2-chloro-4-{[(2-piperidin-1-ylethyl)amino]methyl}phenyl)[1]benzofuro[3,2-d]pyrimidin-4(3H)-one] | < 10 | < 10 | – | < 10 | – | – |
| CC(C)(C)OC(=O)N1CCC(NCc2ccc(-c3nc4c(oc5ccc(Br)cc54)c(=O)[nH]3)c(Cl)c2)CC1 [Compound 386, 1,1-dimethylethyl 4-({[4-(8-bromo-4-oxo-3,4-dihydro[1]benzofuro[3,2-d]pyrimidin-2-yl)-3-chlorophenyl]methyl}amino)piperidine-1-carboxylate] | < 10 | < 10 | – | < 10 | – | – |
| O=C(N[C@@H]1CN(Cc2nc3c(oc4ccc(Br)cc43)c(=O)[nH]2)C[C@H]1O)C1CCNCC1 [Compound 388, N-{(3R,4R)-1-[(8-bromo-4-oxo-3,4-dihydro[1]benzofuro[3,2-d]pyrimidin-2-yl)methyl]-4-hydroxypyrrolidin-3-yl}piperidine-4-carboxamide] | < 10 | < 10 | – | < 10 | – | – |
| Cn1cnc(C(=O)Nc2ccc(-c3nc4c(oc5ccc(Br)cc54)c(=O)[nH]3)c(Cl)c2)c1 [Compound 389, N-[4-(8-bromo-4-oxo-3,4-dihydro[1]benzofuro[3,2-d]pyrimidin-2-yl)-3-chlorophenyl]-1-methyl-1H-imidazole-4-carboxamide] | < 10 | < 10 | – | < 10 | – | – |
| Cn1ccnc1C(=O)Nc1ccc(-c2nc3c(oc4ccc(Br)cc43)c(=O)[nH]2)c(Cl)c1 [Compound 390, N-[4-(8-bromo-4-oxo-3,4-dihydro[1]benzofuro[3,2-d]pyrimidin-2-yl)-3-chlorophenyl]-1-methyl-1H-imidazole-2-carboxamide] | < 10 | < 10 | – | < 10 | – | – |
| Cn1ccc(C(=O)Nc2ccc(-c3nc4c(oc5ccc(Br)cc54)c(=O)[nH]3)c(Cl)c2)n1 [Compound 391] | < 10 | < 10 | – | < 10 | – | – |
| Nc1n[nH]c2ccc(C(=O)Nc3ccc(-c4nc5c(oc6ccc(Br)cc65)c(=O)[nH]4)c(Cl)c3)cc12 [Compound 393, ′3-amino-N-[4-(8-bromo-4-oxo-3,4-dihydro[1]benzofuro[3,2-d]pyrimidin-2-yl)-3-chlorophenyl]-1H-indazole-5-carboxamide] | < 10 | < 10 | – | < 10 | – | – |
| NCCNC(=O)c1ccc(C(=O)Nc2ccc(-c3nc4c(oc5ccc(Br)cc54)c(=O)[nH]3)c(Cl)c2)nc1 [Compound 394, ′N′5′-(2-aminoethyl)-N′2′-[4-(8-bromo-4-oxo-3,4-dihydro[1]benzofuro[3,2-d]pyrimidin-2-yl)-3-chlorophenyl]pyridine-2,5-dicarboxamide] | < 10 | < 10 | – | < 10 | – | – |
| O=C(Nc1ccc(-c2nc3c(oc4ccc(Br)cc43)c(=O)[nH]2)c(Cl)c1)c1cnc2[nH]ccc2c1 [Compound 395, ′N-[4-(8-bromo-4-oxo-3,4-dihydro[1]benzofuro[3,2-d]pyrimidin-2-yl)-3-chlorophenyl]-1H-pyrrolo[2,3-b]pyridine-5-carboxamide] | < 10 | < 10 | – | < 10 | – | – |
| O=c1[nH]c(CN2C3CCC2CC(O)C3)nc2c1oc1ccc(Br)cc12 (stereo not shown) [Compound 398, 8-bromo-2-[(3-hydroxy-8-azabicyclo[3.2.1]oct-8-yl)methyl][1]benzofuro[3,2-d]pyrimidin-4(3H)-one] | – | – | – | < 10 | < 10 | < 10 |
| O=c1[nH]c(CN2CCCC(O)C2)nc2c1oc1ccc(Br)cc12 (stereo not shown) [Compound 400, 8-bromo-2-[(3-hydroxypiperidin-1-yl)methyl][1]benzofuro[3,2-d]pyrimidin-4(3H)-one] | < 10 | < 10 | < 0.1 | < 10 | – | – |
| CN(CCO)Cc1nc2c(oc3ccc(Br)cc32)c(=O)[nH]1 [Compound 401, 8-bromo-2-{[(2-hydroxyethyl)(methyl)amino]methyl}[1]benzofuro[3,2-d]pyrimidin-4(3H)-one] | < 10 | < 10 | < 0.1 | < 10 | – | – |
| O=c1[nH]c(CN2CCC[C@H](O)C2)nc2c1oc1ccc(Br)cc12 [Compound 404, 8-bromo-2-{[(3S)-3-hydroxypiperidin-1-yl]methyl}[1]benzofuro[3,2-d]pyrimidin-4(3H)-one] | < 10 | < 10 | < 0.1 | < 10 | – | – |
| O=C(Nc1ccc(-c2nc3c(oc4ccc(Br)cc43)c(=O)[nH]2)c(Cl)c1)c1csnn1 [Compound 406, N-[4-(8-bromo-4-oxo-3,4-dihydro[1]benzofuro[3,2-d]pyrimidin-2-yl)-3-chlorophenyl]-1,2,3-thiadiazole-4-carboxamide] | < 10 | < 10 | – | < 10 | – | – |
| CCC1(O)CCN(Cc2nc3c(oc4ccc(Br)cc43)c(=O)[nH]2)C1 (stereo not shown) [Compound 407, 8-bromo-2-[(3-ethyl-3-hydroxypyrrolidin-1-yl)methyl][1]benzofuro[3,2-d]pyrimidin-4(3H)-one] | < 10 | < 10 | < 0.1 | < 10 | – | – |
| CO[C@@H]1CCN(Cc2nc3c(oc4ccc(Br)cc43)c(=O)[nH]2)C1 [Compound 408, 8-bromo-2-{[(3R)-3-(methyloxy)pyrrolidin-1-yl]methyl}[1]benzofuro[3,2-d]pyrimidin-4(3H)-one] | < 10 | < 10 | < 0.1 | < 10 | – | – |
| O=c1[nH]c(CN2CC3CCC2C3O)nc2c1oc1ccc(Br)cc12 (stereo not shown) [Compound 412, 8-bromo-2-[(7-hydroxy-2-azabicyclo[2.2.1]hept-2-yl)methyl][1]benzofuro[3,2-d]pyrimidin-4(3H)-one] | < 10 | < 10 | < 0.1 | < 10 | – | – |
| O=c1[nH]c(CN2CC3CCC2[C@H]3O)nc2c1oc1ccc(Br)cc12 (stereo partly drawn) [Compound 413, 8-bromo-2-{[(7S)-7-hydroxy-2-azabicyclo[2.2.1]hept-2-yl]methyl}[1]benzofuro[3,2-d]pyrimidin-4(3H)-one] | < 10 | < 10 | < 0.1 | < 10 | – | – |
| Cc1cc2oc3c(=O)[nH]c(CN4CC[C@H](O)C4)nc3c2cc1Br [Compound 420, 8-bromo-2-{[(3S)-3-hydroxypyrrolidin-1-yl]methyl}-7-methyl[1]benzofuro[3,2-d]pyrimidin-4(3H)-one] | < 10 | < 10 | – | < 10 | – | – |
| CNCc1ccc(-c2nc3c(oc4ccc(Br)cc43)c(=O)[nH]2)c(Cl)c1 [Compound 422, 8-bromo-2-{2-chloro-4-[(methylamino)methyl]phenyl}[1]benzofuro[3,2-d]pyrimidin-4(3H)-one] | < 10 | < 10 | – | < 10 | – | – |
| CN1[C@@H]2CC[C@H]1CN(Cc1nc3c(oc4ccc(Br)cc43)c(=O)[nH]1)CC2 [Compound 425, 8-bromo-2-{[(1S,6R)-9-methyl-3,9-diazabicyclo[4.2.1]non-3-yl]methyl}[1]benzofuro[3,2-d]pyrimidin-4(3H)-one] | < 10 | < 10 | – | < 10 | – | – |
| CN1CCCN(Cc2nc3c(oc4ccc(Br)cc43)c(=O)[nH]2)CC1 [Compound 426, 8-bromo-2-[(4-methyl-1,4-diazepan-1-yl)methyl][1]benzofuro[3,2-d]pyrimidin-4(3H)-one] | < 10 | < 10 | < 0.1 | < 10 | – | – |
| O=c1[nH]c(-c2ccc(CNC3CCCCC3)cc2Cl)nc2c1oc1ccc(Br)cc12 [Compound 427, 8-bromo-2-{2-chloro-4-[(cyclohexylamino)methyl]phenyl}[1]benzofuro[3,2-d]pyrimidin-4(3H)-one] | < 10 | < 10 | – | < 10 | – | – |
| COc1ccc(Br)c2oc3c(=O)[nH]c(CN4CC[C@H](O)C4)nc3c12 [Compound 428, 6-bromo-2-{[(3S)-3-hydroxypyrrolidin-1-yl]methyl}-9-(methyloxy)[1]benzofuro[3,2-d]pyrimidin-4(3H)-one] | < 10 | < 10 | – | < 10 | – | – |
| O=c1[nH]c(CN2CC[C@H](O)C2)nc2c1oc1ccc(Cl)cc12 [Compound 429, 8-chloro-2-{[(3S)-3-hydroxypyrrolidin-1-yl]methyl}[1]benzofuro[3,2-d]pyrimidin-4(3H)-one] | < 10 | < 10 | < 0.1 | < 10 | – | – |
| CC(C)NCc1ccc(-c2nc3c(oc4ccc(Br)cc43)c(=O)[nH]2)c(Cl)c1 [Compound 430, 8-bromo-2-(2-chloro-4-{[(1-methylethyl)amino]methyl}phenyl)[1]benzofuro[3,2-d]pyrimidin-4(3H)-one] | < 10 | < 10 | – | < 10 | – | – |
